Assay [1] deals with T1, human muscarinic M4 receptor (Homo sapiens, UniProt P08173).
T1 construct: expressed in transfected cells
T1 sequence (P08173 1-479): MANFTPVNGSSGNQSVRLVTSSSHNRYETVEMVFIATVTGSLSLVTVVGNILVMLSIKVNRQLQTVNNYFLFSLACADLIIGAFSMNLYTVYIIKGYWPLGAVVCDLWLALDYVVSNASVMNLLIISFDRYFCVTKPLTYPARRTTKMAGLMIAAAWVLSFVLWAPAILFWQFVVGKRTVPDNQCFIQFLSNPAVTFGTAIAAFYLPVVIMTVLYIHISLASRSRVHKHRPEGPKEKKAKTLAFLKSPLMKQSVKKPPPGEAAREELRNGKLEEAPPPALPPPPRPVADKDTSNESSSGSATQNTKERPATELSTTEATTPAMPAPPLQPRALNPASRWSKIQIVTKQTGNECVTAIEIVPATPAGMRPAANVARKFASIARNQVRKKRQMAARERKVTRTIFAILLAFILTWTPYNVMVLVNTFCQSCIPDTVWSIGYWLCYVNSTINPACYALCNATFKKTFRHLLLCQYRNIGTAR
The assay can be described thus: Alphascreen Surefire phospho-ERK1/2 functional assay, M4. The class given is cell-based. As to conditions: for EC50: CHO cells stably expressing human M4, phospho-ERK1/2, * = variable results, read-out: pEC50 M4 (converted); for Emax: CHO, read-out: % Emax cf. ACh, M4, CHO cells stably expressing human M4, relative to ACh.

Assay [2] addresses T2, human muscarinic M1 receptor (Homo sapiens, UniProt P11229).
T2 sequence (P11229 1-460): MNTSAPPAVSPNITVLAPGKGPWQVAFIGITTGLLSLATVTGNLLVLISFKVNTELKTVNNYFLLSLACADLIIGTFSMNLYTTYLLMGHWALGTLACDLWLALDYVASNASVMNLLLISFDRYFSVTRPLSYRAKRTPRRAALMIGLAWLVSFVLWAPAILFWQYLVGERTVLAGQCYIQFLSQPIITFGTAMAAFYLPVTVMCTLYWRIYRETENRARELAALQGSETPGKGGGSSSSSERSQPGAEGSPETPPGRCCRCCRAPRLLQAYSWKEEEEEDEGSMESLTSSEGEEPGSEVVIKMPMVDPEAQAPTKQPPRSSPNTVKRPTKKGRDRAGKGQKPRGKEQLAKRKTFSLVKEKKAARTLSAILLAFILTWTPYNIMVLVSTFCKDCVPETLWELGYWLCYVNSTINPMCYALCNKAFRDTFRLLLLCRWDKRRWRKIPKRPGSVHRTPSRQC
The assay can be described thus: Alphascreen Surefire phospho-ERK1/2 functional assay, M1. The class given is cell-based. As to conditions: for EC50: CHO cells stably expressing human M1, phospho-ERK1/2, * = variable results, read-out: pEC50 M1 (converted); for Emax: CHO, read-out: % Emax cf. ACh, M1, CHO cells stably expressing human M1, relative to ACh. Background: In Alpha technology, singlet oxygen from a donor bead excites a nearby acceptor bead.
Description: (§1) CHO cells stably expressing the human muscarinic M1, M2, M3 or M4 receptor were plated (25K/well) onto 96-well tissue culture plates in MEM-alpha+10% dialysed FBS. Once adhered, cells were serum-starved overnight. Agonist stimulation was performed by the addition of 5 μL agonist to the cells for 5 min (37° C.). Media was removed and 50 μL of lysis buffer added. After 15 min, a 4 μL sample was transferred to 384-well plate and 7 μL of detection mixture added. Plates were incubated for 2 h with gentle agitation in the dark and then read on a PHERAstar plate reader.
(§2) pEC50 and Emax figures were calculated from the resulting data for each receptor subtype.

Assay [3] concerns the target human muscarinic M3 receptor (Homo sapiens, UniProt P20309). Description: Alphascreen Surefire phospho-ERK1/2 functional assay, M3. Particulars: for Emax: CHO, read-out: % Emax cf. ACh, M3, CHO cells stably expressing human M3, relative to ACh; for EC50: pEC50 M3, CHO cells stably expressing human M3, phospho-ERK1/2, * = variable results.
Description: as §1, §2
For assay [4], the target named is T3, human muscarinic M2 receptor (Homo sapiens, UniProt P08172).
T3 sequence (P08172 1-466): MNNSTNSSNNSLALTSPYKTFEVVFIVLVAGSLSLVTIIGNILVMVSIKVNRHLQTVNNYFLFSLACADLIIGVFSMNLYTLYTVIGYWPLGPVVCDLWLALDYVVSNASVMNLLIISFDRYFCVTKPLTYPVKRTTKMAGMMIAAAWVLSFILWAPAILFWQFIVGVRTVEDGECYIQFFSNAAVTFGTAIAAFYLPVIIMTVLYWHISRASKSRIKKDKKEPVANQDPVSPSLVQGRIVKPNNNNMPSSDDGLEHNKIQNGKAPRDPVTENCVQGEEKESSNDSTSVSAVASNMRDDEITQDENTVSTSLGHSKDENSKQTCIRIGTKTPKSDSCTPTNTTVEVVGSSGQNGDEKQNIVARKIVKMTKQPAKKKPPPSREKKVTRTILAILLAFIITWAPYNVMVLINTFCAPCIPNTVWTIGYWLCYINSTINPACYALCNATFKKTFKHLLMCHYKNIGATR
Description: Alphascreen Surefire phospho-ERK1/2 functional assay, M2. As to conditions: for Emax: CHO, read-out: % Emax cf. ACh, M2, CHO cells stably expressing human M2, relative to ACh.

Seven compounds from patent US9926297B2, “Bicyclic AZA compounds as muscarinic M1 receptor and/or M4 receptor agonists” (Heptares Therapeutics Limited, priority 2014, dated 2018) can be followed below.

Where only a bound is given, the exact number is not on record here.

The Emax is the maximal effect, on the per cent scale that the assay sets.

human muscarinic M3 receptor, sequence (P20309 whole entry): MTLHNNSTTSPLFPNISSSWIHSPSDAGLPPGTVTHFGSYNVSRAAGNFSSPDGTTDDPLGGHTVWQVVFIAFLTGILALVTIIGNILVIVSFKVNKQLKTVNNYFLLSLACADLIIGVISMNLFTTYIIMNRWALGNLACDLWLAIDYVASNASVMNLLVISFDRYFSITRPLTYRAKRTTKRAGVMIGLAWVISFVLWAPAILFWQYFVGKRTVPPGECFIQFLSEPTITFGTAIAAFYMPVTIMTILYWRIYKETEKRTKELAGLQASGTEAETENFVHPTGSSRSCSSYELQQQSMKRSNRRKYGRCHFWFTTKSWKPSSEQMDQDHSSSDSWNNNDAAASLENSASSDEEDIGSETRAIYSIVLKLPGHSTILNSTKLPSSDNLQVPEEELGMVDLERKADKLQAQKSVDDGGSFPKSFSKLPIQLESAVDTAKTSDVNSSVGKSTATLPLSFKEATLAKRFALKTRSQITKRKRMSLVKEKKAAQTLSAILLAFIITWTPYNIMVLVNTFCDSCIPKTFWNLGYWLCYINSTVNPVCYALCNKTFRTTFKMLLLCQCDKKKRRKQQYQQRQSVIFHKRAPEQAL

Turning to `CCOC(=O)N1CCC2(CC(N3CCC(n4ccc(C)n4)CC3)C2)C1` (single isomer, unassigned) [1-44 Isomer 2, ethyl 2-[4-(3-methyl-1H-pyrazol-1-yl)piperidin-1-yl]-6-azaspiro[3.4]octane-6-carboxylate], the EC50 in assay [1] was 6.31 nM; in assay [2], 79.4 nM; in assay [3], more than 20000 nM; in assay [4] it was more than 20000 nM. Moreover, the Emax in assay [1] was 126%; in assay [2], 126%; in assay [3], 7%; in assay [4], 80%.

Consider `COC(=O)N1CCC2(CC(N3CCC(n4ccc(C)n4)CC3)C2)C1` (single isomer, unassigned) [1-45 Isomer 2, methyl 2-[4-(3-methyl-1H-pyrazol-1-yl)piperidin-1-yl]-6-azaspiro[3.4]octane-6-carboxylate], for which the EC50 in assay [1] is 20 nM; in assay [2] it was 316 nM; in assay [3], more than 20000 nM; in assay [4] it was 1580 nM. The Emax was found to be 80% in assay [1], 80% in assay [2], 26% in assay [3] and 56% in assay [4].

As for `CCOC(=O)N1CCC2(CC(N3CCC(c4ccnn4CC)CC3)C2)C1` (single isomer, unassigned) [1-47 Isomer 2, ethyl 2-[4-(1-ethyl-1H-pyrazol-5-yl)piperidin-1-yl]-6-azaspiro[3.4]octane-6-carboxylate], the EC50 in assay [1] was 15.8 nM; in assay [2], more than 20000 nM; in assay [3], more than 20000 nM; in assay [4], not below 20000 nM. Moreover, the maximal effect (Emax) in assay [1] is 81%; in assay [2], 7%; in assay [3] it was 19%; in assay [4], 82%.

In the case of `CCCn1nccc1C1CCN(C2CC3(CCN(C(=O)OCC)C3)C2)CC1` (single isomer, unassigned) [1-49 Isomer 2, ethyl 2-[4-(1-propyl-1H-pyrazol-5-yl)piperidin-1-yl]-6-azaspiro[3.4]octane-6-carboxylate], the EC50 in assay [1] is 79.4 nM; in assay [2], 6310 nM; in assay [3] it was more than 20000 nM; in assay [4] it was more than 20000 nM. Further, the Emax worked out at 92% in assay [1], 71% in assay [2], 9% in assay [3] and 21% in assay [4].

Regarding `CCOC(=O)N1CCC2(CC(N3CCC(c4cscn4)CC3)C2)C1` (single isomer, unassigned) [1-50 Isomer 2, ethyl 2-[4-(1,3-thiazol-4-yl)piperidin-1-yl]-6-azaspiro[3.4]octane-6-carboxylate], the EC50 in assay [1] is 2 nM; in assay [2] it was 7.94 nM; in assay [3], more than 20000 nM; in assay [4], more than 20000 nM. The Emax is 122% in assay [1], 124% in assay [2], 8% in assay [3] and 20% in assay [4].

For the compound `CCOC(=O)N1CCC2(CC(N3CCC(c4nccn4CC#N)CC3)C2)C1` (single isomer, unassigned) [1-52 Isomer 2, ethyl 2-{4-[1-(cyanomethyl)-1H-imidazol-2-yl]piperidin-1-yl}-6-azaspiro[3.4]octane-6-carboxylate], the EC50 in assay [1] is 15.8 nM; in assay [2], 158 nM; in assay [3], more than 20000 nM; in assay [4] it was more than 20000 nM. The Emax in assay [1] is 106%; in assay [2], 102%; in assay [3] it was 20%; in assay [4], 15%.

Regarding `CCOC(=O)N1CCC2(CC(N3CCC(c4nn(C)cc4C)CC3)C2)C1` (single isomer, unassigned) [1-56 Isomer 2, ethyl 2-[4-(1,4-dimethyl-1H-pyrazol-3-yl)piperidin-1-yl]-6-azaspiro[3.4]octane-6-carboxylate], the EC50 in assay [1] was 126 nM; in assay [2], 1000 nM; in assay [3], more than 20000 nM; in assay [4], more than 20000 nM. For the same compound, the maximal response (Emax) in assay [1] turned out to be 89%; in assay [2], 30%; in assay [3] it was 3%; in assay [4] it was 0%.
